Test results published in patent US11834420B2, “Preparation method of pyrimidinylthio-benzoate oxime ester compound and application thereof as herbicide” (CHANGZHOU UNIVERSITY, priority 2019, dated 2023).

Experiments:
[1] = system: Eleusine indica; assay: Pot experiment, indoor herbicidal activity (stem and leaf spray); format: in vivo; details: fresh weight inhibition rate, 45 g a.i/hm^2, stem and leaf spray, 21st day after applying
Procedure: (§1) 20 mg of the pyrimidinylthio-benzoate compound active pharmaceutical ingredients (APIs) is weighed with a 1/10,000 analytical balance, dissolved with acetone (or DMF or DMSO), and diluted with a 0.1% Tween-80 aqueous solution to a concentration of 45 g a.i/hm^2.
(§2) The test soil is quantitatively filled to 4/5 of the pot, and subirrigation method is adopted at a bottom of the pot to moisten the soil. The test weed seeds are sown on the soil surface and cultivated in a greenhouse. When the gramineous weeds grow to 3-4 leaf stage and broadleaf weeds grow to 4-6 leaf stage, a stem and leaf spray method is used for treatment. On the 21st day after applying the herbicide, the above-ground part is taken to weigh the fresh weight, and the fresh weight inhibition rate is calculated according to the formula. Fresh weight inhibition rate (%)=(control fresh weight−treated fresh weight)/control fresh weight×100%
(§3) Pyrithiobac-sodium is used as a positive control. The herbicidal activity of the target compound is screened. The dosage refers to the applied dosage of the pyrithiobac-sodium in the cotton field, i.e., 45 g a.i/hm^2, and the stem and leaf spray method is used for treatment.

[2] = system: Portulaca oleracea; assay: as above; format: in vivo; details: fresh weight inhibition rate, 45 g a.i/hm^2, stem and leaf spray, 21st day after applying
Procedure: as §1, §2, §3

[3] = system: Echinochloa crusgalli; assay: as above; format: in vivo; details: fresh weight inhibition rate, 45 g a.i/hm^2, stem and leaf spray, 21st day after applying
Procedure: as §1, §2, §3

[4] = system: Chenopodium album; assay: as above; format: in vivo; details: fresh weight inhibition rate, 45 g a.i/hm^2, stem and leaf spray, 21st day after applying
Procedure: as §1, §2, §3

[5] = system: Setaria viridis; assay: as above; format: in vivo; details: fresh weight inhibition rate, 45 g a.i/hm^2, stem and leaf spray, 21st day after applying
Procedure: as §1, §2, §3

[6] = system: Amaranthus retroflexus; assay: as above; format: in vivo; details: fresh weight inhibition rate, 45 g a.i/hm^2, stem and leaf spray, 21st day after applying
Procedure: as §1, §2, §3

Compound	melting point	Inhibition rate (%) Eleusine indica [1]	Inhibition rate (%) Portulaca oleracea [2]	Inhibition rate (%) Echinochloa crusgalli [3]	Inhibition rate (%) Chenopodium album [4]	Inhibition rate (%) Setaria viridis [5]	Inhibition rate (%) Amaranthus retroflexus [6]
COc1cc(OC)nc(Sc2cccc(Cl)c2C(=O)O/N=C(\C)c2ccccc2[N+](=O)[O-])n1 [G, (E)-1-(2-nitrophenyl)ethan-1-one O-(2-chloro-6-((4,6-dimethoxypyrimidin-2-yl)thio)benzoyl)oxime]	130 to 134 °C	84.6%	89.4%	90.4%	95.7%	60.3%	100%
COc1cc(OC)nc(Sc2cccc(Cl)c2C(=O)O/N=C(\C)c2ccc([N+](=O)[O-])cc2)n1 [I, (E)-1-(4-nitrophenyl)ethan-1-one O-(2-chloro-6-((4,6-dimethoxypyrimidin-2-yl)thio)benzoyl)oxime]	153 to 157 °C	89.7%	94.5%	95.7%	96.8%	75.1%	100%
COc1cc(OC)nc(Sc2cccc(Cl)c2C(=O)O/N=C(\C)c2cccc([N+](=O)[O-])c2)n1 [H, (E)-1-(3-nitrophenyl)ethan-1-one O-(2-chloro-6-((4,6-dimethoxypyrimidin-2-yl)thio)benzoyl)oxime]	155 to 159 °C	88.5%	85.9%	87.7%	90.4%	64.6%	100%
COc1cc(OC)nc(Sc2cccc(Cl)c2C(=O)O/N=C(\C)c2cccc(F)c2)n1 [K, (E)-1-(3-fluorophenyl)ethan-1-one O-(2-chloro-6-((4,6-dimethoxypyrimidin-2-yl)thio)benzoyl) oxime]	103 to 107 °C	92.0%	93.3%	100%	100%	72.9%	100%
COc1ccc(/C(C)=N/OC(=O)c2c(Cl)cccc2Sc2nc(OC)cc(OC)n2)c(OC)c1 [M, (E)-1-(2,4-dimethoxyphenyl)ethan-1-one O-(2-chloro-6-((4,6-dimethoxypyrimidin-2-yl)thio)benzoyl)oxime]	125 to 129 °C	85.6%	90.9%	100%	100%	77.2%	100%
COc1cc(OC)nc(Sc2cccc(Cl)c2C(=O)O)n1 [Pyrithiobac-sodium, reference compound]	–	44.7%	96.8%	60.6%	93.9%	65.4%	95.2%
COc1cc(OC)nc(Sc2cccc(Cl)c2C(=O)O/N=C(\C)c2cccc(C(F)(F)F)c2)n1 [E, (E)-1-(3-(trifluoromethyl)phenyl)ethan-1-one O-(2-chloro-6-((4,6-dimethoxypyrimidin-2-yl)thio)benzoyl)oxime]	81 to 86 °C	37.0%	64.6%	79.5%	82.4%	27.8%	82.4%
COc1cc(OC)nc(Sc2cccc(Cl)c2C(=O)O/N=C(\C)c2cccc(C)c2)n1 [B, (E)-1-(m-tolyl)ethan-1-one O-(2-chloro-6-((4,6-dimethoxypyrimidin-2-yl)thio)benzoyl) oxime]	84 to 88 °C	53.0%	60.7%	30.3%	87.0%	53.0%	93.5%
COc1cc(OC)nc(Sc2cccc(Cl)c2C(=O)O/N=C(\C)c2ccccc2F)n1 [J, (E)-1-(2-fluorophenyl)ethan-1-one O-(2-chloro-6-((4,6-dimethoxypyrimidin-2-yl)thio)benzoyl) oxime]	87 to 91 °C	90.3%	90.2%	100%	98.4%	77.2%	100%
COc1cc(OC)nc(Sc2cccc(Cl)c2C(=O)O/N=C(\C)c2ccccc2C(F)(F)F)n1 [D, (E)-1-(2-(trifluoromethyl)phenyl)ethan-1-one O-(2-chloro-6-((4,6-dimethoxypyrimidin-2-yl)thio)benzoyl)oxime]	82 to 85 °C	52.4%	69.2%	78.3%	89.6%	33.7%	80.2%
COc1cc(OC)nc(Sc2cccc(Cl)c2C(=O)O/N=C(\C)c2ccc(C)cc2)n1 [C, (E)-1-(p-tolyl)ethan-1-one O-(2-chloro-6-((4,6-dimethoxypyrimidin-2-yl)thio)benzoyl) oxime]	115 to 119 °C	52.5%	40.9%	37.5%	95.8%	39.3%	90.4%
COc1cc(OC)nc(Sc2cccc(Cl)c2C(=O)O/N=C(\C)c2ccc(F)cc2)n1 [L, (E)-1-(4-fluorophenyl)ethan-1-one O-(2-chloro-6((4,6-dimethoxypyrimidin-2-yl)thio)benzoyl) oxime]	102 to 105 °C	87.0%	90.5%	100%	100%	75.4%	100%
COc1cc(OC)nc(Sc2cccc(Cl)c2C(=O)O/N=C(\C)c2ccc(C(F)(F)F)cc2)n1 [F, (E)-1-(4-(trifluoromethyl)phenyl)ethan-1-one O-(2-chloro-6-((4,6-dimethoxypyrimidin-2-yl)thio)benzoyl)oxime]	86 to 90 °C	80.7%	84.4%	100%	85.1%	56.0%	97.5%
COc1cc(OC)nc(Sc2cccc(Cl)c2C(=O)O/N=C(\C)c2ccccc2C)n1 [A, (E)-1-(o-tolyl)ethan-1-one O-(2-chloro-6-((4,6-dimethoxypyrimidin-2-yl)thio)benzoyl) oxime]	108 to 111 °C	67.6%	35.4%	35.6%	100%	31.3%	92.0%
